Test results taken from patent US20070093520A1, “Method of treatment of diarrhea-predominant irritable bowel syndrome in a subject” (priority 2005, published 2007).

Tested on: diarrhea-predominant IBS subjects
Assay: 3007 Study: open-label 52-week safety study, adverse events and withdrawals
[1] = Overall, N=536, % of appropriate gender

Cc1nccn1C[C@H]1CCc2c(c3cccc4c3n2CCC4)C1=O [cilansetron, (R)-(−)-4,5,6,8,9,10-hexahydro-10-[(2-methyl-1H-imidazol-1-yl)methyl]-11H-pyrido-[3,2,1-jk]-carbazol-11-one]
2 (<1%) n (%): TEAE leading to permanent discontinuation: Dyspepsia (Overall, N=536) | TEAE leading to permanent discontinuation: Muscle Cramps (Overall, N=536) | TEAE leading to permanent discontinuation: Breast Cancer NOS* [1] | TEAE: Female Reproductive Tract Infections* (Overall, gender-specific) | TEAE: Vaginal Candidiasis* (Overall, gender-specific) | TEAE: Vaginosis Fungal NOS* (Overall, gender-specific) | TEAE: Allergic Conditions NEC (P/C group)
7 (1%) n (%): TEAE leading to permanent discontinuation: Flatulence (Overall, N=536) | TEAE leading to permanent discontinuation: General Disorders and Administration Site Conditions (Overall, N=536) | TEAE leading to permanent discontinuation: Musculoskeletal and Connective Tissue Disorders (Overall, N=536)
64 (12%) n (%): TEAE leading to permanent discontinuation: Gastrointestinal Disorders (Overall, N=536)
83 (15%) n (%): Total Number of Subjects with at Least One TEAE Leading to Discontinuation of Study Medication (Overall, N=536)
0 n (%): TEAE: Acne NOS (P/C group) | TEAE: Acnes (P/C group) | TEAE: Adenomyosis* (P/C group) | TEAE: Amenorrhoea NOS* (P/C group)
3 (<1%) n (%): TEAE leading to permanent discontinuation: Nausea (Overall, N=536) | TEAE leading to permanent discontinuation: Respiratory, Thoracic and Mediastinal Disorders (Overall, N=536)
1 (<1%) n (%): TEAE leading to permanent discontinuation: Ear and Labyrinth Disorders (Overall, N=536) | TEAE leading to permanent discontinuation: Epigastric Discomfort (Overall, N=536) | TEAE leading to permanent discontinuation: Eructation (Overall, N=536) | TEAE leading to permanent discontinuation: Eye Disorders (Overall, N=536) | TEAE leading to permanent discontinuation: Faecal Abnormality NOS (Overall, N=536) | TEAE leading to permanent discontinuation: Faecal Impaction (Overall, N=536) | TEAE leading to permanent discontinuation: Faecal Incontinence (Overall, N=536) | TEAE leading to permanent discontinuation: Faeces Hard (Overall, N=536) | TEAE leading to permanent discontinuation: Fibroma NOS (Overall, N=536) | TEAE leading to permanent discontinuation: Gastric Irritation (Overall, N=536) | TEAE leading to permanent discontinuation: Gastrointestinal Motility Disorder NOS (Overall, N=536) | TEAE leading to permanent discontinuation: Haemorrhoidal Haemorrhage (Overall, N=536) | TEAE leading to permanent discontinuation: Hallucination NOS (Overall, N=536) | TEAE leading to permanent discontinuation: Hallucination, Auditory (Overall, N=536) | TEAE leading to permanent discontinuation: Headache NOS Aggravated (Overall, N=536) | TEAE leading to permanent discontinuation: Heart Rate Increased (Overall, N=536) | TEAE leading to permanent discontinuation: Hepatobiliary Disorders (Overall, N=536) | TEAE leading to permanent discontinuation: Hepatosplenomegaly NOS (Overall, N=536) | TEAE leading to permanent discontinuation: Hiatus Hernia (Overall, N=536) | TEAE leading to permanent discontinuation: Irritable Bowel Syndrome Aggravated (Overall, N=536) | TEAE leading to permanent discontinuation: Lethargy (Overall, N=536) | TEAE leading to permanent discontinuation: Metabolism and Nutrition Disorders (Overall, N=536) | TEAE leading to permanent discontinuation: Migraine NOS (Overall, N=536) | TEAE leading to permanent discontinuation: Pregnancy, Puerperium and Perinatal Conditions (Overall, N=536) | TEAE leading to permanent discontinuation: Pruritus NOS (Overall, N=536) | TEAE leading to permanent discontinuation: Psychiatric Disorders (Overall, N=536) | TEAE leading to permanent discontinuation: Psychotic Disorder NOS (Overall, N=536) | TEAE leading to permanent discontinuation: Rash Macular (Overall, N=536) | TEAE leading to permanent discontinuation: Rash NOS (Overall, N=536) | TEAE leading to permanent discontinuation: Rectal Disorder NOS (Overall, N=536) | TEAE leading to permanent discontinuation: Rectal Tenesmus (Overall, N=536) | TEAE leading to permanent discontinuation: Renal and Urinary Disorders (Overall, N=536) | TEAE leading to permanent discontinuation: Somnolence (Overall, N=536) | TEAE leading to permanent discontinuation: Stomach Discomfort (Overall, N=536) | TEAE leading to permanent discontinuation: Suicidal Ideation (Overall, N=536) | TEAE leading to permanent discontinuation: Urticaria NOS (Overall, N=536) | TEAE leading to permanent discontinuation: Vertigo (Overall, N=536) | TEAE leading to permanent discontinuation: Visual Acuity Reduced (Overall, N=536) | TEAE leading to permanent discontinuation: Vomiting NOS (Overall, N=536) | TEAE leading to permanent discontinuation: White Blood Cells Urine Positive (Overall, N=536) | TEAE leading to permanent discontinuation: Benign Ovarian Tumour* [1] | TEAE leading to permanent discontinuation: Ovarian Cancer NOS* [1] | TEAE leading to permanent discontinuation: Ovarian Cystadenofibroma* [1] | TEAE leading to permanent discontinuation: Pregnancy NOS* [1] | TEAE: Prostate Examination Abnormal* (Overall, gender-specific) | TEAE: Smear Cervix Abnormal* (Overall, gender-specific) | TEAE: Vaginitis Bacterial NOS* (Overall, gender-specific) | TEAE: Vaginitis* (Overall, gender-specific) | TEAE: Abdominal Therapeutic Procedures NEC (P/C group) | TEAE: Abdominoplasty (P/C group) | TEAE: Abnormal Chest Sounds NOS (P/C group) | TEAE: Acquired Hypothyroidism (P/C group) | TEAE: Acrochordons (P/C group) | TEAE: Age Related Issues (P/C group) | TEAE: Allergies to Foods, Food Additives, Drugs and Other Chemicals (P/C group) | TEAE: Allergy to Insect Sting (P/C group) | TEAE: Alopecia (P/C group) | TEAE: Alopecias (P/C group) | TEAE: Anaemia NOS (P/C group)
4 (<1%) n (%): TEAE leading to permanent discontinuation: Fatigue (Overall, N=536) | TEAE leading to permanent discontinuation: Headache NOS (Overall, N=536) | TEAE leading to permanent discontinuation: Rectal Haemorrhage (Overall, N=536) | TEAE leading to permanent discontinuation: Skin and Subcutaneous Tissue Disorders (Overall, N=536)
8 (1%) n (%): TEAE leading to permanent discontinuation: Nervous System Disorders (Overall, N=536)
5 (<1%) n (%): TEAE leading to permanent discontinuation: Investigations (Overall, N=536) | TEAE leading to permanent discontinuation: Neoplasms Benign, Malignant and Unspecified (Incl Cysts and Polyps) (Overall, N=536)
